Results reported in patent US12605305B2, “Application of citrate metal salt in endodontic treatment, and formulation obtained by preparation” (KUNMING QINGCHENG HEALTHCARE TECH LTD., priority 2020, dated 2026).
Entries after “also recorded” stand apart in the source; their conditions may differ. Where two headings read alike, the source gives them in different places.

Tests used:
[1] = Compatibility of cationic antibacterial agent with sodium citrate solution; type: physicochemical; settings: for Phenomenon (compatibility with sodium citrate solution): 20% sodium citrate solution mixed 1:1 with 0.2% agent solution, room temperature, dark, 7 days
Protocol: (§1) Materials to be tested: sodium citrate, potassium citrate, lithium citrate, citric acid, EDTA-2Na.
(§2) Each of the citric acid metal salts to be tested was prepared as a 20% aqueous solution; the citric acid to be tested was prepared as a 20% aqueous solution; the EDTA-2Na to be tested was prepared as a 10% aqueous solution; and the cationic antibacterial agent to be tested was prepared as a 0.2% aqueous solution. Each of the prepared aqueous solutions of citrate metal salt (or citric acid aqueous solutions) was mixed with each of the prepared aqueous solutions of cationic antibacterial agent to be tested at a ratio of 1:1.
(§3) All the mixed solutions were stored at room temperature in dark and left standing for 7 days before observation.

[2] = Compatibility of cationic antibacterial agent with EDTA-2Na solution; type: physicochemical; settings: 10% EDTA-2Na solution mixed 1:1 with 0.2% agent solution, room temperature, dark, 7 days
Protocol: as §1, §2, §3

[3] = Compatibility of cationic antibacterial agent with lithium citrate solution; type: physicochemical; settings: for Phenomenon (compatibility with lithium citrate solution): 20% lithium citrate solution mixed 1:1 with 0.2% agent solution, room temperature, dark, 7 days
Protocol: as §1, §2, §3

[4] = Compatibility of cationic antibacterial agent with citric acid solution; type: physicochemical; settings: 20% citric acid solution mixed 1:1 with 0.2% agent solution, room temperature, dark, 7 days
Protocol: as §1, §2, §3

[5] = Compatibility of cationic antibacterial agent with potassium citrate solution; type: physicochemical; settings: for Phenomenon (compatibility with potassium citrate solution): 20% potassium citrate solution mixed 1:1 with 0.2% agent solution, room temperature, dark, 7 days
Protocol: as §1, §2, §3

[6] = Evaluation of the effect of removing smear layer in vitro (SEM of treated root canal specimens)
Text: Healthy single premolars that need to be extracted for the purpose of clinical orthodontic extraction. Patient age: 14-25 years old. Inclusion criteria: single upright unobstructed root canal, fully developed apical foramen, no near-pulp caries or near-pulp fillings, no history of pulp therapy, no apical root resorption, no root fracture, and other defects, and no periodontal disease.
The soft tissue and calculus around the root of the isolated teeth were removed. The isolated teeth were cleaned and packed for high-temperature and high-pressure steam sterilization. Three sterilized isolated teeth were taken randomly and placed in 10 ml of BHI liquid culture medium, cultured at 37° C. for 24 h, and then taken out. With the naked eye, if the BHI liquid culture medium remains transparent, it is considered that the sterilization effect is reliable. If the BHI liquid culture medium is turbid, it is necessary to re-disinfect all samples and repeat the above steps. After confirmation of successful sterilization, the samples were stored at room temperature for later use.
The pulp chamber of the isolated teeth confirmed to be successfully sterilized was opened using a high-speed hand-piece with an emery ball bit with a diameter of 0.5 mm. After pulp extirpation, the root canal was dredged with an ISO standard #10 stainless steel hand K file, until the file tip that just penetrated the apical foramen was seen. The file was measured for length, from which 0.5 mm was subtracted to establish the working length of the root canal. Then the root canal preparation was performed using a Protaper Universal Engine with Nickel-titanium root canal file to 25/06. […]

[7] = cited from earlier work
[8] = root canal treated for 5 minutes

Compound | Phenomenon (compatibility with sodium citrate solution) [1] | Phenomenon (compatibility with EDTA-2Na solution) [2] | Phenomenon (compatibility with lithium citrate solution) [3] | Phenomenon (compatibility with citric acid solution) [4] | Phenomenon (compatibility with potassium citrate solution) [5] | compatibility with sodium citrate (conclusion in words) [1] | compatibility with lithium citrate (conclusion in words) [3] | compatibility with potassium citrate (conclusion in words) [5] | effect of removing the smear layer [6, 8] | pH value ([7]; 5% citric acid solution) | pH value ([7]; 10% citric acid solution) | effect of removing the smear layer ([6]; treatment time as per figures (1, 5 and/or 10 min) or not stated)
N-cocoyl-L-arginine ethyl ester-DL-pyrrolidone carboxylate | + | + | + | + | + |  |  |  |  |  |  | 
polydimethyl diallyl ammonium chloride | − | − | − | − | − | compatible | compatible | compatible |  |  |  | 
CCCCCCCCCCCC[N+](C)(C)C.[Cl-] [dodecyl trimethyl ammonium chloride] | − | − | − | − | − | compatible | compatible | compatible |  |  |  | 
polyhexamethyl guanidine hydrochloride | + | + | + | + | + |  |  |  |  |  |  | 
CCCCCCCCCCCC[N+](C)(C)Cc1ccccc1.[Br-] [dodecyl dimethyl benzyl ammonium bromide] | − | − | − | − | − | compatible | compatible | compatible |  |  |  | 
polyhexamethylene biguanide hydrochloride | + | + | + | + | + |  |  |  |  |  |  | 
O=P([O-])([O-])OP(=O)([O-])[O-].[K+].[K+].[K+].[K+] [potassium pyrophosphate] |  |  |  |  |  |  |  |  | could not improve the effect of the formulation on removing the smear layer |  |  | 
CCCCCCCCCCCC[N+](C)(C)Cc1ccccc1.[Cl-] [dodecyl dimethyl benzyl ammonium chloride] | − | − | − | − | − | compatible | compatible | compatible |  |  |  | 
N=C(NCCCCCCNC(=N)NC(=N)Nc1ccc(Cl)cc1)NC(=N)Nc1ccc(Cl)cc1.O=C(O)[C@H](O)[C@@H](O)[C@H](O)[C@H](O)CO.O=C(O)[C@H](O)[C@@H](O)[C@H](O)[C@H](O)CO [chlorhexidine gluconate, reference compound] | + | + | + | + | + |  |  |  |  |  |  | 
O=C(O)CC(O)(CC(=O)O)C(=O)O [citric acid] |  |  |  |  |  |  |  |  |  | 1.93 | 1.91 | 
CC(=O)O.CC(=O)O.NC(=N\CCCCCC/N=C(N)/N=C(\N)Nc1ccc(Cl)cc1)/N=C(\N)Nc1ccc(Cl)cc1 [chlorhexidine acetate, reference compound] | + | + | + | + | + |  |  |  |  |  |  | 
O=P(O)(O)OP(=O)(O)OP(=O)(O)O [sodium tripolyphosphate] |  |  |  |  |  |  |  |  | not helpful for sodium citrate to improve the effect of removing the smear layer |  |  | cannot be effective in removing the smear layer; also recorded: very poor effect of removing the smear layer
CCCCCCCCCCCCCCCC[n+]1ccccc1.[Cl-] [hexadecyl pyridinium chloride, reference compound] | − | − | − | − | − | compatible | compatible | compatible |  |  |  | 
